# Results published in ChEMBL document CHEMBL4251601 (Eur J Med Chem, 2018).
# Activity calls are given as the source filed them. No cut-off for these calls is given here.
# Tests used:
# [1] = target: Ephrin type-A receptor 2 (Homo sapiens) (UniProt P29317); test: Inhibition of recombinant human GST-tagged EPHA2 cytoplasmic domain expressed in baculovirus expression system at 1 uM by Z'-Lyte assay relative to control
# [2] = target: G protein-coupled receptor kinase 3 (Homo sapiens) (UniProt P35626); test: Inhibition of recombinant human full length GST-tagged GRK3 expressed in baculovirus expression system at 0.1 uM by Z'-Lyte assay relative to control
# [3] = target: Tyrosine-protein kinase JAK2 (Homo sapiens) (UniProt O60674); test: Inhibition of recombinant human GST-tagged JAK2 expressed in baculovirus expression system at 1 uM by TR-FRET assay relative to control
# [4] = target: Serine/threonine-protein kinase PLK1 (Homo sapiens) (UniProt P53350); test: Inhibition of recombinant human full length His-tagged PLK1 expressed in baculovirus expression system at 0.1 uM by Z'-Lyte assay relative to control
# [5] = test system: Mus musculus; test: In vivo inhibition of CDK4/6 in nude mouse xenografted with human COLO205 cells assessed as reduction in Ser-780-phosphorylated Rb level in tumor at 100 mg/kg administered via oral gavage measured after 24 to 48 hrs by Western blot analysis; format: functional, organism-based
# [6] = target: 3-phosphoinositide-dependent protein kinase 1 (Homo sapiens) (UniProt O15530); test: Inhibition of recombinant human full length His-tagged PDK1 expressed in baculovirus expression system at 0.1 uM by Z'-Lyte assay relative to control
# [7] = test system: U-87 MG; test: Antitumor activity against luciferase-fused human U87MG cells orthotopically xenografted in nude mouse assessed as tumor growth inhibition at 50 mg/kg, po qd for 4 weeks by bioluminescence imaging relative to control; format: functional, U-87MG ATCC; details: 672 h, read-out: TGI
# [8] = target: Phosphatidylinositol 4,5-bisphosphate 3-kinase catalytic subunit beta isoform (Homo sapiens) (UniProt P42338); test: Inhibition of PI3K beta (unknown origin) at 1 uM by ADP-Glo assay relative to control
# [9] = Half life in Sprague-Dawley rat at 5 mg/kg, po administered as single dose by LC-MS/MS analysis; format: ADME, organism-based; details: in vivo
# [10] = target: Protein-tyrosine kinase 6 (Homo sapiens) (UniProt Q13882); test: Inhibition of recombinant human full length His-tagged PTK6 expressed in baculovirus expression system at 1 uM by TR-FRET assay relative to control
# [11] = target: Serine/threonine-protein kinase Chk2 (Homo sapiens) (UniProt O96017); test: Inhibition of recombinant full length human His-tagged CHEK2 expressed in baculovirus expression system at 0.1 uM by Z'-Lyte assay relative to control
# [12] = target: Serine/threonine-protein kinase MARK1 (Homo sapiens) (UniProt Q9P0L2); test: Inhibition of recombinant human full length GST-tagged MARK1 expressed in baculovirus expression system at 0.1 uM by Z'-Lyte assay relative to control
# [13] = Oral bioavailability in Sprague-Dawley rat at 5 mg/kg administered as single dose by LC-MS/MS analysis; format: ADME, organism-based; details: Sprague-Dawley, in vivo
# [14] = target: Serine/threonine-protein kinase 26 (Homo sapiens) (UniProt Q9P289); test: Inhibition of recombinant human full length GST-tagged MST4 expressed in baculovirus expression system at 1 uM by Z'-Lyte assay relative to control
# [15] = target: Tyrosine-protein kinase Srms (Homo sapiens) (UniProt Q9H3Y6); test: Inhibition of recombinant human full length GST-tagged SRMS expressed in baculovirus expression system at 1 uM by TR-FRET assay relative to control
# [16] = target: Epidermal growth factor receptor (Homo sapiens) (UniProt P00533); test: Inhibition of recombinant human GST-tagged EGFR cytoplasmic domain expressed in baculovirus expression system at 1 uM by TR-FRET assay relative to control
# [17] = target: Dual specificity tyrosine-phosphorylation-regulated kinase 3 (Homo sapiens) (UniProt O43781); test: Inhibition of recombinant full length human GST-tagged DYRK3 expressed in baculovirus expression system at 1 uM by Z'-Lyte assay relative to control
# [18] = test system: U-87 MG; test: Antitumor activity against luciferase-fused human U87MG cells orthotopically xenografted in nude mouse assessed as tumor growth inhibition at 12.5 mg/kg, po qd for 4 weeks by bioluminescence imaging relative to control; format: functional, U-87MG ATCC; details: 672 h, read-out: TGI
# [19] = target: Cyclin-dependent kinase 4/cyclin D1 (Homo sapiens) (UniProt P11802+P24385); test: Inhibition of recombinant full length human GST-tagged CDK4/Cyclin-D1 expressed in baculovirus expression system at 0.1 uM by TR-FRET assay relative to control
# [20] = target: Mitogen-activated protein kinase 8 (Homo sapiens) (UniProt P45983); test: Inhibition of recombinant human full length His-tagged JNK1 expressed in baculovirus expression system at 1 uM by Z'-Lyte assay relative to control
# [21] = target: Casein kinase I isoform alpha (Homo sapiens) (UniProt P48729); test: Inhibition of recombinant full length human GST-tagged CK1alpha expressed in baculovirus expression system at 0.1 uM by Z'-Lyte assay relative to control
# [22] = target: MAP kinase-activated protein kinase 2 (Homo sapiens) (UniProt P49137); test: Inhibition of recombinant human full length His-tagged MK2 expressed in Escherichia coli at 1 uM by Z'-Lyte assay relative to control
# [23] = target: Dual specificity protein kinase CLK1 (Homo sapiens) (UniProt P49759); test: Inhibition of recombinant human GST-tagged CLK1 expressed in Escherichia coli at 0.1 uM by Z'-Lyte assay relative to control
# [24] = AUC (0 to 24 hrs) in Sprague-Dawley rat at 5 mg/kg, po administered as single dose by LC-MS/MS analysis; format: ADME, organism-based; parameters: time < 24 hr, dose 5 mg/kg, route oral; details: in vivo
# [25] = target: Beta-adrenergic receptor kinase 1 (Homo sapiens) (UniProt P25098); test: Inhibition of recombinant human full length His-tagged GRK2 expressed in baculovirus expression system at 1 uM by Z'-Lyte assay relative to control
# [26] = AUC (0 to infinity) in ICR mouse at 5 mg/kg, po administered as single dose by LC-MS/MS analysis; format: ADME, organism-based; parameters: dose 5 mg/kg, route oral, time infinity; details: in vivo
# [27] = target: G protein-coupled receptor kinase 6 (Homo sapiens) (UniProt P43250); test: Inhibition of recombinant human full length GST-tagged GRK6 expressed in baculovirus expression system at 0.1 uM by Z'-Lyte assay relative to control
# [28] = target: Serine/threonine-protein kinase Chk2 (Homo sapiens) (UniProt O96017); test: Inhibition of recombinant full length human His-tagged CHEK2 expressed in baculovirus expression system at 1 uM by Z'-Lyte assay relative to control
# [29] = test system: Epidermal growth factor receptor (Homo sapiens), P00533 [L858R,T790M]; test: Inhibition of recombinant human GST-tagged EGFR T790M/L858R double mutant expressed in baculovirus expression system at 0.1 uM by TR-FRET assay relative to control
# [30] = target: Mitogen-activated protein kinase 14 (Homo sapiens) (UniProt Q16539); test: Inhibition of recombinant human full length GST-tagged p38alpha expressed in Escherichia coli at 1 uM by Z'-Lyte assay relative to control
# [31] = test system: U-87 MG; test: Antitumor activity against luciferase-fused human U87MG cells orthotopically xenografted in nude mouse assessed as increase in mouse life span at 6.25 mg/kg, po qd for 5 weeks relative to control; format: functional, U-87MG ATCC; details: 840 h
# Serine/threonine-protein kinase Chk2 (Homo sapiens), sequence (O96017 whole entry): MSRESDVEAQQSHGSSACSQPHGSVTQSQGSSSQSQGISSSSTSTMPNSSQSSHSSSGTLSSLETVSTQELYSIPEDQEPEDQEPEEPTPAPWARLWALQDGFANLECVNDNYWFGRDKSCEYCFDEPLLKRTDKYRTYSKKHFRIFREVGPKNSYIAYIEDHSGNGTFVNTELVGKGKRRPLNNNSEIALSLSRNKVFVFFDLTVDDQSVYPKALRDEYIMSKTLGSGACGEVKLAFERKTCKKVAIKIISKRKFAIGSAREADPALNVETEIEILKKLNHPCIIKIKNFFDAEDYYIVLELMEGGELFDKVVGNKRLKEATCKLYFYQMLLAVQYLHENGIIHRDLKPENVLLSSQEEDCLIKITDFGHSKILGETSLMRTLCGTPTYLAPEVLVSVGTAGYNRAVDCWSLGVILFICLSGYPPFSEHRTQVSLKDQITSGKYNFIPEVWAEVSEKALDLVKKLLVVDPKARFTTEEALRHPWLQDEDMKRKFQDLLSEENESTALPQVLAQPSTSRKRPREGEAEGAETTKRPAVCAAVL
# Serine/threonine-protein kinase PLK1 (Homo sapiens), sequence (P53350 whole entry): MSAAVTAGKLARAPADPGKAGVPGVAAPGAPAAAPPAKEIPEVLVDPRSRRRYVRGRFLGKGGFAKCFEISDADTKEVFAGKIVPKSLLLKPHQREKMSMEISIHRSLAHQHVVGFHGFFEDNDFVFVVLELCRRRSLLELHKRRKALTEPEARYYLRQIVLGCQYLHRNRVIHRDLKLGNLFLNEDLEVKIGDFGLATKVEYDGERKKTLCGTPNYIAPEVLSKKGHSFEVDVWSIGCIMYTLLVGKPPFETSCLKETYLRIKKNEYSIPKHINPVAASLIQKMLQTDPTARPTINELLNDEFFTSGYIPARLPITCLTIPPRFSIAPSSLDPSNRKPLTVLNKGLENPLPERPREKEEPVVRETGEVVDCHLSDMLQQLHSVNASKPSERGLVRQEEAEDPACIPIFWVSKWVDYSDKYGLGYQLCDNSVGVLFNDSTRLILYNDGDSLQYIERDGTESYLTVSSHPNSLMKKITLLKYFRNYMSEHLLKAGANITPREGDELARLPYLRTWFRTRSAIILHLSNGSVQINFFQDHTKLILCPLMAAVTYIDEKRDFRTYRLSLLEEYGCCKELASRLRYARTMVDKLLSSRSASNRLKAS
# Epidermal growth factor receptor (Homo sapiens), P00533 [L858R,T790M], sequence (P00533 whole entry T790M/L858R, looked up): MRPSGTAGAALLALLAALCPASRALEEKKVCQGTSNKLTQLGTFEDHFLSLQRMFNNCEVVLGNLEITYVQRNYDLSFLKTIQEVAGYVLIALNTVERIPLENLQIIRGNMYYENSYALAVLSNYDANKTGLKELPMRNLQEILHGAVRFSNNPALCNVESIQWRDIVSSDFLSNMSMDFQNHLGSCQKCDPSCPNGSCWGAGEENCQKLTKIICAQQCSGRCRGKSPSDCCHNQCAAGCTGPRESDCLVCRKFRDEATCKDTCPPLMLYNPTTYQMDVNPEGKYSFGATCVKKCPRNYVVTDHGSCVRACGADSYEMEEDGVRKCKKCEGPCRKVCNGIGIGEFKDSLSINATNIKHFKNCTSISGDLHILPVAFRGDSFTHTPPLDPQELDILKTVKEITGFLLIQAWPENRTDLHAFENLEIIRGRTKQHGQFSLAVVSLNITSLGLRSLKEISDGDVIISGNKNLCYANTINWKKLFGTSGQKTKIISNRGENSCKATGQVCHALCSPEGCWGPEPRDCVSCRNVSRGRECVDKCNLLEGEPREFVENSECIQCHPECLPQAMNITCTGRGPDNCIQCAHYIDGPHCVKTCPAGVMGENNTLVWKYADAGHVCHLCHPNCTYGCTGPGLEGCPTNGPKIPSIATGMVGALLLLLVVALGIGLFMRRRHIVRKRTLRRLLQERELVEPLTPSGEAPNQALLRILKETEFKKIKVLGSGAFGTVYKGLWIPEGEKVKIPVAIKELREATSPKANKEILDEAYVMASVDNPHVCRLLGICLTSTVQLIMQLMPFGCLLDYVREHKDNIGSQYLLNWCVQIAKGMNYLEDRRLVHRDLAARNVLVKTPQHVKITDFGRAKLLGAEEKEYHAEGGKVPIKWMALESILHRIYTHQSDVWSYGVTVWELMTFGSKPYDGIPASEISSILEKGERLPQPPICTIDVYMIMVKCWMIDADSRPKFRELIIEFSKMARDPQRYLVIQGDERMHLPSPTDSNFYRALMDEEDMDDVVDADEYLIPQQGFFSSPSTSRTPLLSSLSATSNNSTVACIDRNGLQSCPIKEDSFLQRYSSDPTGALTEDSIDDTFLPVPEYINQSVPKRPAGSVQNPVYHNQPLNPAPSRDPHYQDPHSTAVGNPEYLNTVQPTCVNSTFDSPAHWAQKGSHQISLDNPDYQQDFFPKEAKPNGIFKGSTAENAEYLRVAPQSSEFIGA
# Epidermal growth factor receptor (Homo sapiens), sequence (P00533 whole entry, the tested form may be a part): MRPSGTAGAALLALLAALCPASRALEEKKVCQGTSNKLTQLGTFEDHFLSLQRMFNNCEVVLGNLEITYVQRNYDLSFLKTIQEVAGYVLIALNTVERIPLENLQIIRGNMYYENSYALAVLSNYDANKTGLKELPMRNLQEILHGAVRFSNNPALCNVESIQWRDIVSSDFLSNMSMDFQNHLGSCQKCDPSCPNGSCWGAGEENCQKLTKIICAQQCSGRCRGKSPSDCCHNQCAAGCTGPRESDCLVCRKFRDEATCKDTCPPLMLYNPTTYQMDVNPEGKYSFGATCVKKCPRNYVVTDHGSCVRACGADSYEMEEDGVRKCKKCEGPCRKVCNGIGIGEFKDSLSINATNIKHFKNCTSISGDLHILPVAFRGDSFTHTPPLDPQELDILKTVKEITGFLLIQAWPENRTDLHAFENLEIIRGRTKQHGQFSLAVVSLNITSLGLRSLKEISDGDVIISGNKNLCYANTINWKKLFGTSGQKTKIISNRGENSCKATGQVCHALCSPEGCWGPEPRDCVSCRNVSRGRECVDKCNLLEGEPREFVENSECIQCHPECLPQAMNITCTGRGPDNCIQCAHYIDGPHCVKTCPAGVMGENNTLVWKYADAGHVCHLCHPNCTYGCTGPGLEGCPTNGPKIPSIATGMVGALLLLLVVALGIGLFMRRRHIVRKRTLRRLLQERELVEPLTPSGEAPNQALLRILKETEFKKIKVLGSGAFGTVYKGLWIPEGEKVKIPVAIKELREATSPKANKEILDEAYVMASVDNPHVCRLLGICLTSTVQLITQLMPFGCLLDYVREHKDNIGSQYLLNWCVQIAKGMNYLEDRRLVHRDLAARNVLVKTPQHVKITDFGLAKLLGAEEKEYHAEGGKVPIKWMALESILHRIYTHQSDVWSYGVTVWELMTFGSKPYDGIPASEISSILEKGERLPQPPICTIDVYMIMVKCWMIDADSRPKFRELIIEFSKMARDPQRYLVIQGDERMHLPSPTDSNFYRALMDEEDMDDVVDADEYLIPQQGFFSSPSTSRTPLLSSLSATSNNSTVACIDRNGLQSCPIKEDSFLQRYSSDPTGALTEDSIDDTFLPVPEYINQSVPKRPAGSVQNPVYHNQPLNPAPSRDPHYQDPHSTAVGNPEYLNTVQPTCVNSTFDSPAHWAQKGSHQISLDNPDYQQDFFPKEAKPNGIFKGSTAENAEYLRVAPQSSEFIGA
# Ephrin type-A receptor 2 (Homo sapiens), sequence (P29317 whole entry, the tested form may be a part): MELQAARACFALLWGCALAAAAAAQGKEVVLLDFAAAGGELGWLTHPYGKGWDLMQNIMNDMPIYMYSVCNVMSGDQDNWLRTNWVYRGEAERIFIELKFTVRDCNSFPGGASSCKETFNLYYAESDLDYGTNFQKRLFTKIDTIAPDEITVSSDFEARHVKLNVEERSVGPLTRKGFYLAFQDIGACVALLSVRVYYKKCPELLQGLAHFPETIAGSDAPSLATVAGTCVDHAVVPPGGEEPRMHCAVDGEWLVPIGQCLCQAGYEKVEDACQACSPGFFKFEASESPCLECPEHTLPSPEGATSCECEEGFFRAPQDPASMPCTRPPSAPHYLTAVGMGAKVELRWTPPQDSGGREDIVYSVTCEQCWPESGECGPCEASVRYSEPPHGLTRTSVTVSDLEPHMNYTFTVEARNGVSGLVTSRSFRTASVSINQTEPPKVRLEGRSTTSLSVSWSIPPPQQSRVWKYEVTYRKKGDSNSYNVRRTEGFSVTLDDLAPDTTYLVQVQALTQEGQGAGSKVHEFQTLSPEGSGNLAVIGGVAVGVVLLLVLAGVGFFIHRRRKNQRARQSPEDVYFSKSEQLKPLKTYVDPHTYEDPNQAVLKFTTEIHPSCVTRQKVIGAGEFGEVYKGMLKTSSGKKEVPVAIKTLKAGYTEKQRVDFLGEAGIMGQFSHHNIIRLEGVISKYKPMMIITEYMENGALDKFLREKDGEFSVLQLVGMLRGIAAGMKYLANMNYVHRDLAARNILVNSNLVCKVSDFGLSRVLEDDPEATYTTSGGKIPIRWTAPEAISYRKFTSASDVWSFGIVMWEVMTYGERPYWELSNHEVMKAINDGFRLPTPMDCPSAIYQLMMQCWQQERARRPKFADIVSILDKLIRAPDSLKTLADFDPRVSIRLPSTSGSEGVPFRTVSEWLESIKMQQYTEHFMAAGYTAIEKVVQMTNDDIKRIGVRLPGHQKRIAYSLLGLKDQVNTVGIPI
# 3-phosphoinositide-dependent protein kinase 1 (Homo sapiens), sequence (O15530 whole entry, the tested form may be a part): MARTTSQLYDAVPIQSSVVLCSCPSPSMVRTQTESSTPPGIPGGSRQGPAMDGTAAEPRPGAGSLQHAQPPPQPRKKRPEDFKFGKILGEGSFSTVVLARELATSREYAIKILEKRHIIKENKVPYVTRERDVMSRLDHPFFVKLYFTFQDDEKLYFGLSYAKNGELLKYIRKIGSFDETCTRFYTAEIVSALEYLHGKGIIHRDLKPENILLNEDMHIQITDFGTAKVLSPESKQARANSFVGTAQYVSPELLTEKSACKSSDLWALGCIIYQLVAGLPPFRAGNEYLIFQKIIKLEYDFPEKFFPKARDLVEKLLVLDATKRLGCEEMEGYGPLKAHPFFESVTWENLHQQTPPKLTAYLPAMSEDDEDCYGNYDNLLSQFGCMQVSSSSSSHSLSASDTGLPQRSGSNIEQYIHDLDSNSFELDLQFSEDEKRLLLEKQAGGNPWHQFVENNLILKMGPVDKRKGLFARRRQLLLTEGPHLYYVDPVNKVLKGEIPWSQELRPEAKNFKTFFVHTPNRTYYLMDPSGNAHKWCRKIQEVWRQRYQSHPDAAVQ
smiles,measurement,setting,value
CC1=Nc2c(F)cc(-c3nc(Nc4ccc(C5CCN(C)CC5)cn4)ncc3F)cc2C12CCCC2 [CROZBACICLIB],inhibition,[1],4%
same,inhibition,[2],-7%
same,inhibition,[3],64%
same,inhibition,[4],-3%
same,inhibition,[5],Active
same,inhibition,[6],-3%
same,inhibition in vivo at 50 mg/kg,[7],99%
same,inhibition,[8],11%
same,half-life,[9],8.5 h
same,inhibition,[10],34%
same,inhibition,[11],-2%
same,inhibition,[12],3%
same,bioavailability,[13],66%
same,inhibition,[14],-1%
same,inhibition,[15],6%
same,inhibition,[16],31%
same,inhibition,[17],96%
same,inhibition in vivo at 12.5 mg/kg,[18],92%
same,inhibition,[19],106%
same,inhibition,[20],82%
same,inhibition,[21],-3%
same,inhibition,[22],-1%
same,inhibition,[23],28%
same,AUC(0-t) at 24 h,[24],1530 ng·h/mL
same,inhibition,[25],-1%
same,AUC(0-inf),[26],2500 ng·h/mL
same,inhibition,[27],-4%
same,inhibition,[28],6%
same,inhibition,[29],27%
same,inhibition,[30],-8%
same,ILS at 6.25 mg/kg,[31],45%
